Consider four compounds from ChEMBL document CHEMBL1141736, “DNA polymerase and topoisomerase II inhibitors from Psoralea corylifolia” (J Nat Prod, 1998).

Common to all, as to format: cell-based
The target in assay [1] is DNA topoisomerase 2-alpha (Homo sapiens, UniProt P11388). The assay is described as follows: Inhibition of DNA topoisomerase 2 in human HeLa cells by kinetoplast DNA decantation assay.
For assay [2], the system named is CV-1. The assay is described as follows: Inhibition of replicative DNA polymerase epsilon in SV40 virus infected african green monkey CV1 cells. The conditions noted are these: Chlorocebus aethiops.
Assay [3] concerns CV-1. In words: Inhibition of replicative DNA polymerase […] in SV40 virus infected african green monkey CV1 cells. Particulars: Chlorocebus aethiops.
For assay [4], the system named is CV-1. The assay is described as follows: Inhibition of replicative DNA polymerase gamma in SV40 virus infected african green monkey CV1 cells. The conditions noted are these: Chlorocebus aethiops.

Calls of active or inactive are those of the source. The calls are words filed in the database; no cut-off is given here.

DNA topoisomerase 2-alpha, sequence (P11388 whole entry): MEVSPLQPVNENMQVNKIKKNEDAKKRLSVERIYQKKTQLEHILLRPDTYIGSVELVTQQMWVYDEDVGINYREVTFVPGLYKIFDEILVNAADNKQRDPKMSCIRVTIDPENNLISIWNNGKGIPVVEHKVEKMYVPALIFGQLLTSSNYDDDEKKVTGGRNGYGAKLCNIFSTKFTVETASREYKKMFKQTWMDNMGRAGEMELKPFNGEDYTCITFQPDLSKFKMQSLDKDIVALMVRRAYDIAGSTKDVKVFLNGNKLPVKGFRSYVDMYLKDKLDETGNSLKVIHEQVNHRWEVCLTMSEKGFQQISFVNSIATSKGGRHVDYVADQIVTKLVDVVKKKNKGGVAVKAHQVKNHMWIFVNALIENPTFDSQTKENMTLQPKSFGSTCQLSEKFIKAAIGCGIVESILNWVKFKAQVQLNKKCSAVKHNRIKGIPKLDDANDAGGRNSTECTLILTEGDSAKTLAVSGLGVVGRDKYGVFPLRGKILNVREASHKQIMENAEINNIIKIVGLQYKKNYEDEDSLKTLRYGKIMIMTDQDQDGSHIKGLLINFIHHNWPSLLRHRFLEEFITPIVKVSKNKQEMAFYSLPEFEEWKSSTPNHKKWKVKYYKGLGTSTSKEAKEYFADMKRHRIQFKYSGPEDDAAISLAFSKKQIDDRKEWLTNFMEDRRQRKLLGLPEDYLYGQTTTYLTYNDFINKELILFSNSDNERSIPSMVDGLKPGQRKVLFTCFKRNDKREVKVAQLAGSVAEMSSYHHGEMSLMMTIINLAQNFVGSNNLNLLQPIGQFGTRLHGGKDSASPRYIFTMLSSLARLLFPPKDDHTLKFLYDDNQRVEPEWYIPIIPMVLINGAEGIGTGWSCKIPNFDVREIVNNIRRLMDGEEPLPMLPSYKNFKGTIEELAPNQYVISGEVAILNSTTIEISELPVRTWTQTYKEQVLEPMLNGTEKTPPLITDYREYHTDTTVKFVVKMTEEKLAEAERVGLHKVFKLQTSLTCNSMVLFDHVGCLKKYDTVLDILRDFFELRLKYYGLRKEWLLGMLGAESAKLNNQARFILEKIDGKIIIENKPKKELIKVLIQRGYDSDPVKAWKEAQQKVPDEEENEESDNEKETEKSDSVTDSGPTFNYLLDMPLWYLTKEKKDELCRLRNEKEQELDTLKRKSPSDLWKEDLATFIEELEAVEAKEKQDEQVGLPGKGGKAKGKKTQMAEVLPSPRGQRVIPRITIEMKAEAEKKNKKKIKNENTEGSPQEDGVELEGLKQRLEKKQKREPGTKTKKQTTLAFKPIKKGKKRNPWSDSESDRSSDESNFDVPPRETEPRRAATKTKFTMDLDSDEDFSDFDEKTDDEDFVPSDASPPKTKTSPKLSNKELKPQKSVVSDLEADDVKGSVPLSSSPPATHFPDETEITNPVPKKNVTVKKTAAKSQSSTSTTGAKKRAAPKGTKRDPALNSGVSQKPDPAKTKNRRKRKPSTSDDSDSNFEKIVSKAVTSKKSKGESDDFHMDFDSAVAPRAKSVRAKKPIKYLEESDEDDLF

By IC50 is commonly meant the midpoint of a concentration-inhibition curve. The compound `O=c1ccc2c(ccc3ccoc32)o1` [BAKUCHICIN] showed an IC50 in assay [1] of 404 µM. Consider `O=c1ccc2cc3ccoc3cc2o1`, for which the outcome in assay [1] was inactive.

As to `CC(C)=CCc1cc(-c2coc3cc(O)ccc3c2=O)ccc1O`, the result in assay [1] was inactive. In the case of `C=C[C@@](C)(/C=C/c1ccc(O)cc1)CCC=C(C)C`, the outcome in the assay with CV-1 [2] was Active. The result in the assay with CV-1 [3] and in the assay with CV-1 [4] was inactive.
